Results as given in patent US6881584B1, “Infrared thermography” (SmithKline Beecham Corporation, priority 1998, dated 2005).

Test system: liver
Test: Liver thermogenesis in AKR mice with IR transparent adhesive
Assay type: in vivo
Conditions: AKR mice on high-fat diet, 75 mg/kg i.g., 5 hours
Protocol: FIG. 31. Liver thermogenesis in AKR mice 5 hours after treatment with the nucleoside reverse transcriptase inhibitor (NRTI) D4T detected by IR thermography. Male AKR mice were housed 5 per cage and maintained on high fat diet (58% kCals as fat) and water ad libitum. Mice were dosed at 0, 1, 10, 75, and 100 mg/kg D4T in water vehicle (0.5 mL i.g.; n=10 per dose) and anesthetized using isoflurane as described above 5 hours after treatment. The abdomens of the anesthetized mice were surgically opened to expose the liver and Bioclusive adhesive was placed over the entire exposed area. IR images of the liver region were acquired and analyzed as detailed in FIG. 28. […] Quantification of the IR signal depicted in the image is shown in the bottom left panel. Analysis of the dose response to D4T is shown in the panel to the right. Data shown are means±SEM for n=10 animals per group.
AKR mice fed a high-fat diet were treated with 75 mg/kg D4T, and their abdomens were surgically opened and covered with Bioclusive adhesive 5 hour later. […] This decrease is quantitated in the lower left panel of FIG. 31. Moreover, the dose-dependent effect of D4T on decreased liver temperature determined using IR thermography (FIG. 31, right panel) correlated well with the effect of D4T treatment on serum non-esterified fatty acid levels (r=0.91, data not shown).

Cc1cn([C@H]2C=C[C@@H](CO)O2)c(=O)[nH]c1=O [D4T]
liver temperature: decrease in temperature
